Assay [1] deals with T1, Dual specificity protein phosphatase 3 (Homo sapiens, UniProt P51452). As to the kind of experiment: Inhibition of VHR (unknown origin) using DiFMUP as substrate incubated for 30 mins followed by substrate addition at pH 6.5 by standard phosphatase assay based fluorescence analysis.
Target sequence in this assay (P51452 whole entry): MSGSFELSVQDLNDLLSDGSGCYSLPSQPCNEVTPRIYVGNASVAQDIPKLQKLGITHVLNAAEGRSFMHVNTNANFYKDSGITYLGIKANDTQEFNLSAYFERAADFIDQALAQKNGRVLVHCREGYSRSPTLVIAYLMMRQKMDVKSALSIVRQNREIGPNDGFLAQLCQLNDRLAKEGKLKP
Assay [2] addresses T2, Tyrosine-protein phosphatase non-receptor type 7 (Homo sapiens, UniProt P35236).
T2 sequence (P35236 whole entry): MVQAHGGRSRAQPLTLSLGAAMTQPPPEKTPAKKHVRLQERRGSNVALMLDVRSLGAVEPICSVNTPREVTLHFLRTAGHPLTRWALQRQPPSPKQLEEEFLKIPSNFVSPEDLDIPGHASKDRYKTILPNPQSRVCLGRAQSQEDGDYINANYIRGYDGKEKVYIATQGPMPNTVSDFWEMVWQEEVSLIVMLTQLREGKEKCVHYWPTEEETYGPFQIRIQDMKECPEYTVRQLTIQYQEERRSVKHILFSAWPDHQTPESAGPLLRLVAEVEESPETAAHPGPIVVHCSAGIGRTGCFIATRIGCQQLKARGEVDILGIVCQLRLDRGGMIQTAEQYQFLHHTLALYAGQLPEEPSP
Nature of the assay: Inhibition of HePTP (unknown origin) using DiFMUP as substrate incubated for 30 mins followed by substrate addition at pH 6.5 by standard phosphatase assay based fluorescence analysis.

Assay [3] deals with T3, Receptor-type tyrosine-protein phosphatase epsilon (Homo sapiens, UniProt P23469). Nature of the assay: Inhibition of PTPep (unknown origin) using DiFMUP as substrate incubated for 30 mins followed by substrate addition at pH 6.5 by standard phosphatase assay based fluorescence analysis.
T3 sequence (P23469 whole entry): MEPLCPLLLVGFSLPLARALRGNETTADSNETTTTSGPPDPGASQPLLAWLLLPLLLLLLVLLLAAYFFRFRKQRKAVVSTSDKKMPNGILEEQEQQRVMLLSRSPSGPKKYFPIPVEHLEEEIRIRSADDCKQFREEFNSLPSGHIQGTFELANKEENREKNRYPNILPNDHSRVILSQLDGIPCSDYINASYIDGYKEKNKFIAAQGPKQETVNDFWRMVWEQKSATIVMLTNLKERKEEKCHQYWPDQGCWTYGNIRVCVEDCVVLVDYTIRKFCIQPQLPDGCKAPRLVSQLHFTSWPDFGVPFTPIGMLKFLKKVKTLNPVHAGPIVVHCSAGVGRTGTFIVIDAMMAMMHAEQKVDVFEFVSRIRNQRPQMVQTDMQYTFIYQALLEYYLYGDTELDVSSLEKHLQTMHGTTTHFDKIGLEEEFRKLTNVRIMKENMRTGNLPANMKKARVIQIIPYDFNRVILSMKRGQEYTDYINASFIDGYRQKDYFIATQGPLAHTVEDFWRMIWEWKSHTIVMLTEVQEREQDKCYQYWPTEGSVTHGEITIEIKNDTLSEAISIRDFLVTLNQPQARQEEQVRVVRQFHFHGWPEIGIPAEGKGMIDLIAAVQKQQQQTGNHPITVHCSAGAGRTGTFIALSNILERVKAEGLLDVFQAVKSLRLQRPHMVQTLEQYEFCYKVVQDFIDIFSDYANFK
Assay [4] addresses T4, Tyrosine-protein phosphatase non-receptor type 2 (Homo sapiens, UniProt P17706).
T4 sequence (P17706 whole entry): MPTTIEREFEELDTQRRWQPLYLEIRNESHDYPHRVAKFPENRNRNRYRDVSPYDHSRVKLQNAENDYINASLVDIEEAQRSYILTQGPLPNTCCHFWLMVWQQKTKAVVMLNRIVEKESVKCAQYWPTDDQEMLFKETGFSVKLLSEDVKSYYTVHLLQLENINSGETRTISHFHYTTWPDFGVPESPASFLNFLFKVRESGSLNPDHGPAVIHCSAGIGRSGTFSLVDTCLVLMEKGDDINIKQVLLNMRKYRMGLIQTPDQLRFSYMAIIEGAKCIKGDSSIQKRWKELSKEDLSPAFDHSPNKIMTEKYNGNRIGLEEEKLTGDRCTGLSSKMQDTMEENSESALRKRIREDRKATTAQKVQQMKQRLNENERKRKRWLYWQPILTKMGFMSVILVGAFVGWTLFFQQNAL
As to the kind of experiment: Inhibition of TCPTP (unknown origin) using DiFMUP as substrate incubated for 30 mins followed by substrate addition at pH 6.5 by standard phosphatase assay based fluorescence analysis.

The target of assay [5] is T5, Receptor-type tyrosine-protein phosphatase mu (Homo sapiens, UniProt P28827). As to the kind of experiment: Inhibition of PTPmu (unknown origin) using DiFMUP as substrate incubated for 30 mins followed by substrate addition at pH 6.5 by standard phosphatase assay based fluorescence analysis.
T5 sequence (P28827 whole entry): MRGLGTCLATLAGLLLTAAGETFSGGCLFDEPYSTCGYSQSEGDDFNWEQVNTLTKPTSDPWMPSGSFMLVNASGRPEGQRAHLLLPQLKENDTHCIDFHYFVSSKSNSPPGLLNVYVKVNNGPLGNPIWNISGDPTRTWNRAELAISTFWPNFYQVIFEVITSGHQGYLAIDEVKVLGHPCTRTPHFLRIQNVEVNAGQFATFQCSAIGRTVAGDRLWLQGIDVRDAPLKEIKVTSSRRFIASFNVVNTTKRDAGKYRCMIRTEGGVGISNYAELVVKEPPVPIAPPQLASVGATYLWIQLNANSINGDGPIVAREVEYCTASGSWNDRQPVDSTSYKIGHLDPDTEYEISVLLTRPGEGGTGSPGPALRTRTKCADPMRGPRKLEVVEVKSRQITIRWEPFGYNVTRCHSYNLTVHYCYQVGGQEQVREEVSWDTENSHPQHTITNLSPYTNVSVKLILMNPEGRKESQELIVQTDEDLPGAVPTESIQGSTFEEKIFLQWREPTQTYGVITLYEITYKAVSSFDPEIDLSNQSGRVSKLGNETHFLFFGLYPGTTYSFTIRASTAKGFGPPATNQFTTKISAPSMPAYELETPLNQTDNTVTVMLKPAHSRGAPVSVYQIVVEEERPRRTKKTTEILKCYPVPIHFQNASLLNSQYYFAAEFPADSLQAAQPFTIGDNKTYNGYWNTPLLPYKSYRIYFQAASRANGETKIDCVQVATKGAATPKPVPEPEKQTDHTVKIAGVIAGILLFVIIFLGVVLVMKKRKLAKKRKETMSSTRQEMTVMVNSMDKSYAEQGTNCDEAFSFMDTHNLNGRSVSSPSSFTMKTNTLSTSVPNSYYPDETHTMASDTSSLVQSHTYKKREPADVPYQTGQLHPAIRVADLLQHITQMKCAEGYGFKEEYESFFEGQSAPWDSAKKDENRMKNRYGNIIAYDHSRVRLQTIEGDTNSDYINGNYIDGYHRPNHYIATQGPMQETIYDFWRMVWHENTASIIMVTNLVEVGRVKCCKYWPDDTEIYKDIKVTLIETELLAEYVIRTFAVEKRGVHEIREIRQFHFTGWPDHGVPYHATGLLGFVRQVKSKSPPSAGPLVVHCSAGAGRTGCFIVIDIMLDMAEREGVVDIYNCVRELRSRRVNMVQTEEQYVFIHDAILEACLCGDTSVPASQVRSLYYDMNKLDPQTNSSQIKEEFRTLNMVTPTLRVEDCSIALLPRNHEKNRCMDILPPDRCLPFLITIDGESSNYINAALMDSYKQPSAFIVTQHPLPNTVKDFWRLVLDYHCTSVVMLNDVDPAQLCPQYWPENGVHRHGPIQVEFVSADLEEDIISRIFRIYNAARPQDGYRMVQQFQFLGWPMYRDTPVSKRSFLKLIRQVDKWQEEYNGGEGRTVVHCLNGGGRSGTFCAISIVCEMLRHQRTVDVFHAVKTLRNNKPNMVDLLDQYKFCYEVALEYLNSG
Assay [6] has as its target T6, Receptor-type tyrosine-protein phosphatase C (Homo sapiens, UniProt P08575).
T6 sequence (P08575 whole entry): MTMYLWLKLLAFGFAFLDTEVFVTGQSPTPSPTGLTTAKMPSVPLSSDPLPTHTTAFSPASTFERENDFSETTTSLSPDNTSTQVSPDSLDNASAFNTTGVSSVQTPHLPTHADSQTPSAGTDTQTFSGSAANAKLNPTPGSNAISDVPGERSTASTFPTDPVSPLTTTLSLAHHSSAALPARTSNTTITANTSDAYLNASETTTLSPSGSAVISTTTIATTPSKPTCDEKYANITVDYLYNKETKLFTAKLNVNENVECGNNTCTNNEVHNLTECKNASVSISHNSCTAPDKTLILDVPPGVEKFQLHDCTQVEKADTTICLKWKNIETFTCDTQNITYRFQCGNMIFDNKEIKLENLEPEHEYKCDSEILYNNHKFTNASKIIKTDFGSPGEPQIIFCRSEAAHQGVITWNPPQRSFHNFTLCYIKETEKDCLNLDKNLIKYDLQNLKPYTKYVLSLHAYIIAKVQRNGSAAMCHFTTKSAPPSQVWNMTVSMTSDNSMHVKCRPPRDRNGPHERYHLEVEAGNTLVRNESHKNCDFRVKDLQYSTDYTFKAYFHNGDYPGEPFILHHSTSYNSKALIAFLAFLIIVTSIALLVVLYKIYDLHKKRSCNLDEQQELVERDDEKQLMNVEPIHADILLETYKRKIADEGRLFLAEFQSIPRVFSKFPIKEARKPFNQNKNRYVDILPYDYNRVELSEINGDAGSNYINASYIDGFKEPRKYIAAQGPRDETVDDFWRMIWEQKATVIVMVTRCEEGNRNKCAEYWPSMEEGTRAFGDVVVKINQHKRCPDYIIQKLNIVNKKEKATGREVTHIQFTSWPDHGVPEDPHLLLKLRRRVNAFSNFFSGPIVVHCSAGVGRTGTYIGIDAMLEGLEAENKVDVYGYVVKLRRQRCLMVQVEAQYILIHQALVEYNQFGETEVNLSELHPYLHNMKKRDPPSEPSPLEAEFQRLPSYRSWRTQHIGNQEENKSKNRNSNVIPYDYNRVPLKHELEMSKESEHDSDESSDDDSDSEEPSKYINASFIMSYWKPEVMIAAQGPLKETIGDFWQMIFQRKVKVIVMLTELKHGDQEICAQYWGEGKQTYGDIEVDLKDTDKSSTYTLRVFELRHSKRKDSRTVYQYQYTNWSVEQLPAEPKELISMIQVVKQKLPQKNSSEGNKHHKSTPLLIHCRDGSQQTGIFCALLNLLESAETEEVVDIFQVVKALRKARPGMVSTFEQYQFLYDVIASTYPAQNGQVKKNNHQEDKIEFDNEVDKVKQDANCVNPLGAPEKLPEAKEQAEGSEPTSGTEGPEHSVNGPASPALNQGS
Nature of the assay: Inhibition of CD45 (unknown origin) using DiFMUP as substrate incubated for 30 mins followed by substrate addition at pH 6.5 by standard phosphatase assay based fluorescence analysis.

Assay [7] has as its target T3, Receptor-type tyrosine-protein phosphatase epsilon. Nature of the assay: Inhibition of PTPep (unknown origin) using DiFMUP as substrate at 100 uM incubated for 30 mins followed by substrate addition at pH 6.5 by standard phosphatase assay based fluorescence analysis.
Assay [8] addresses T1, Dual specificity protein phosphatase 3. Nature of the assay: Inhibition of VHR (unknown origin) using DiFMUP as substrate at 100 uM incubated for 30 mins followed by substrate addition at pH 6.5 by standard phosphatase assay based fluorescence analysis.
Target sequence in this assay (P51452 whole entry, looked up): as the sequence (P51452 whole entry) above
Assay [9] addresses T7, Tyrosine-protein phosphatase non-receptor type 7 (Homo sapiens) (UniProt P35236).
T7 sequence (whole entry): T2 sequence (P35236 whole entry)
Nature of the assay: Inhibition of HePTP (unknown origin) using DiFMUP as substrate at 100 uM incubated for 30 mins followed by substrate addition at pH 6.5 by standard phosphatase assay based fluorescence analysis.

Assay [10] concerns the target T8, Tyrosine-protein phosphatase non-receptor type 2 (Homo sapiens) (UniProt P17706).
T8 sequence (whole entry): T4 sequence (P17706 whole entry)
As to the kind of experiment: Inhibition of TCPTP (unknown origin) using DiFMUP as substrate at 100 uM incubated for 30 mins followed by substrate addition at pH 6.5 by standard phosphatase assay based fluorescence analysis.

Assay [11] addresses T5, Receptor-type tyrosine-protein phosphatase mu. Nature of the assay: Inhibition of PTPmu (unknown origin) using DiFMUP as substrate at 100 uM incubated for 30 mins followed by substrate addition at pH 6.5 by standard phosphatase assay based fluorescence analysis.
Assay [12] addresses T9, Tyrosine-protein phosphatase non-receptor type 11 (Homo sapiens) (UniProt Q06124).
T9 sequence (whole entry): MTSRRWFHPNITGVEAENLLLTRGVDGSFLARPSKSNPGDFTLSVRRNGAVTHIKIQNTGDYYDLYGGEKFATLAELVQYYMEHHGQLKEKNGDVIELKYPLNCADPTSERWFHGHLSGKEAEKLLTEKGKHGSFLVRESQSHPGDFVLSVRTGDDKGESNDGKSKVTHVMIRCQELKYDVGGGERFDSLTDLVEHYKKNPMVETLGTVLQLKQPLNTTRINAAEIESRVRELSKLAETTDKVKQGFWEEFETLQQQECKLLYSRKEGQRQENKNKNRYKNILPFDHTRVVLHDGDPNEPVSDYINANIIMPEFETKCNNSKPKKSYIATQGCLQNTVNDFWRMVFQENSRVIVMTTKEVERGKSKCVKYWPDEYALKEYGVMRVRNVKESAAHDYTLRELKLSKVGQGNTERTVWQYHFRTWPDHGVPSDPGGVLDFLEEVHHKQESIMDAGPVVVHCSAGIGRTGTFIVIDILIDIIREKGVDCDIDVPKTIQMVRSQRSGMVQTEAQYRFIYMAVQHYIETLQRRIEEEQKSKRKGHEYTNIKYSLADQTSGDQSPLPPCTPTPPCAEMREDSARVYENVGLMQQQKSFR
As to the kind of experiment: Inhibition of SHP2 (unknown origin) using DiFMUP as substrate at 100 uM incubated for 30 mins followed by substrate addition at pH 6.5 by standard phosphatase assay based fluorescence analysis.

The target of assay [13] is T10, Receptor-type tyrosine-protein phosphatase C (Homo sapiens) (UniProt P08575).
T10 sequence (whole entry): T6 sequence (P08575 whole entry)
As to the kind of experiment: Inhibition of CD45 (unknown origin) using DiFMUP as substrate at 100 uM incubated for 30 mins followed by substrate addition at pH 6.5 by standard phosphatase assay based fluorescence analysis.

Assay [14] has as its target Receptor-type tyrosine-protein phosphatase F (Homo sapiens) (UniProt P10586). Nature of the assay: Inhibition of LAR (unknown origin) using DiFMUP as substrate at 100 uM incubated for 30 mins followed by substrate addition at pH 6.5 by standard phosphatase assay based fluorescence analysis.
Assay [15] deals with T11, Tyrosine-protein phosphatase non-receptor type 11 (Homo sapiens, UniProt Q06124).
T11 sequence (Q06124 whole entry): T9 sequence (whole entry)
Nature of the assay: Inhibition of SHP2 (unknown origin) using DiFMUP as substrate incubated for 30 mins followed by substrate addition at pH 6.5 by standard phosphatase assay based fluorescence analysis.

Assay [16] addresses Receptor-type tyrosine-protein phosphatase F (Homo sapiens) (UniProt P10586). As to the kind of experiment: Time-dependent inhibition of LAR (unknown origin) using DiFMUP as substrate at 50 uM incubated for 15 to 120 mins followed by substrate addition at pH 6.5 by standard phosphatase assay based fluorescence analysis. The following applies: TDE = time-dependent effect.
Assay [17] addresses Low molecular weight phosphotyrosine protein phosphatase (Homo sapiens) (UniProt P24666). Nature of the assay: Inhibition of LMWPTP (unknown origin) using DiFMUP as substrate at 100 uM incubated for 30 mins followed by substrate addition at pH 6.5 by standard phosphatase assay based fluorescence analysis.
Assay [18] has as its target Receptor-type tyrosine-protein phosphatase F (Homo sapiens) (UniProt P10586). Nature of the assay: Inhibition of LAR (unknown origin) assessed as time required for half of the protein to be covalently modified using DiFMUP as substrate incubated for 15 to 120 mins followed by substrate addition at pH 6.5 by standard phosphatase assay based fluorescence analysis.
The target is the same in assay [19]. As to the kind of experiment: Inhibition of LAR (unknown origin) using DiFMUP as substrate incubated for 30 mins followed by substrate addition at pH 6.5 by standard phosphatase assay based fluorescence analysis.
For assay [20] the target is unchanged. As to the kind of experiment: Time-dependent inhibition of LAR (unknown origin) using DiFMUP as substrate at 1 uM incubated for 15 to 120 mins followed by substrate addition at pH 6.5 by standard phosphatase assay based fluorescence analysis. The following applies: TDE = time-dependent effect.
The target of assay [21] is T10, Receptor-type tyrosine-protein phosphatase C (Homo sapiens). As to the kind of experiment: Time dependent inhibition of CD45 (unknown origin) using DiFMUP as substrate at 10 uM incubated for 5 to 120 mins followed by substrate addition at pH 6.5 by standard phosphatase assay based fluorescence analysis. As to conditions: TDE = time-dependent effect.
Assay [22] deals with T5, Receptor-type tyrosine-protein phosphatase mu. Nature of the assay: Time-dependent inhibition of PTPmu (unknown origin) using DiFMUP as substrate at 10 uM incubated for 5 to 120 mins followed by substrate addition at pH 6.5 by standard phosphatase assay based fluorescence analysis. The following applies: TDE = time-dependent effect.

3 compounds from ChEMBL document CHEMBL4414670 (J Nat Prod, 2019) can be followed below.

In general, IC50 refers to the concentration that inhibits the measured activity by half.

Active and inactive are the calls of the source. The rule behind the calls is not given here.

Chain of Low molecular weight phosphotyrosine protein phosphatase (Homo sapiens) (P24666 whole entry, looked up): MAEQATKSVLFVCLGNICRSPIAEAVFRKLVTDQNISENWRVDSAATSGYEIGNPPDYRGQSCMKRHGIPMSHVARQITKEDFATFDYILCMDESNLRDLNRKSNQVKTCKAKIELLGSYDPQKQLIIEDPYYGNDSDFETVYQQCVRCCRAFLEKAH
Chain of Receptor-type tyrosine-protein phosphatase F (Homo sapiens) (P10586 whole entry): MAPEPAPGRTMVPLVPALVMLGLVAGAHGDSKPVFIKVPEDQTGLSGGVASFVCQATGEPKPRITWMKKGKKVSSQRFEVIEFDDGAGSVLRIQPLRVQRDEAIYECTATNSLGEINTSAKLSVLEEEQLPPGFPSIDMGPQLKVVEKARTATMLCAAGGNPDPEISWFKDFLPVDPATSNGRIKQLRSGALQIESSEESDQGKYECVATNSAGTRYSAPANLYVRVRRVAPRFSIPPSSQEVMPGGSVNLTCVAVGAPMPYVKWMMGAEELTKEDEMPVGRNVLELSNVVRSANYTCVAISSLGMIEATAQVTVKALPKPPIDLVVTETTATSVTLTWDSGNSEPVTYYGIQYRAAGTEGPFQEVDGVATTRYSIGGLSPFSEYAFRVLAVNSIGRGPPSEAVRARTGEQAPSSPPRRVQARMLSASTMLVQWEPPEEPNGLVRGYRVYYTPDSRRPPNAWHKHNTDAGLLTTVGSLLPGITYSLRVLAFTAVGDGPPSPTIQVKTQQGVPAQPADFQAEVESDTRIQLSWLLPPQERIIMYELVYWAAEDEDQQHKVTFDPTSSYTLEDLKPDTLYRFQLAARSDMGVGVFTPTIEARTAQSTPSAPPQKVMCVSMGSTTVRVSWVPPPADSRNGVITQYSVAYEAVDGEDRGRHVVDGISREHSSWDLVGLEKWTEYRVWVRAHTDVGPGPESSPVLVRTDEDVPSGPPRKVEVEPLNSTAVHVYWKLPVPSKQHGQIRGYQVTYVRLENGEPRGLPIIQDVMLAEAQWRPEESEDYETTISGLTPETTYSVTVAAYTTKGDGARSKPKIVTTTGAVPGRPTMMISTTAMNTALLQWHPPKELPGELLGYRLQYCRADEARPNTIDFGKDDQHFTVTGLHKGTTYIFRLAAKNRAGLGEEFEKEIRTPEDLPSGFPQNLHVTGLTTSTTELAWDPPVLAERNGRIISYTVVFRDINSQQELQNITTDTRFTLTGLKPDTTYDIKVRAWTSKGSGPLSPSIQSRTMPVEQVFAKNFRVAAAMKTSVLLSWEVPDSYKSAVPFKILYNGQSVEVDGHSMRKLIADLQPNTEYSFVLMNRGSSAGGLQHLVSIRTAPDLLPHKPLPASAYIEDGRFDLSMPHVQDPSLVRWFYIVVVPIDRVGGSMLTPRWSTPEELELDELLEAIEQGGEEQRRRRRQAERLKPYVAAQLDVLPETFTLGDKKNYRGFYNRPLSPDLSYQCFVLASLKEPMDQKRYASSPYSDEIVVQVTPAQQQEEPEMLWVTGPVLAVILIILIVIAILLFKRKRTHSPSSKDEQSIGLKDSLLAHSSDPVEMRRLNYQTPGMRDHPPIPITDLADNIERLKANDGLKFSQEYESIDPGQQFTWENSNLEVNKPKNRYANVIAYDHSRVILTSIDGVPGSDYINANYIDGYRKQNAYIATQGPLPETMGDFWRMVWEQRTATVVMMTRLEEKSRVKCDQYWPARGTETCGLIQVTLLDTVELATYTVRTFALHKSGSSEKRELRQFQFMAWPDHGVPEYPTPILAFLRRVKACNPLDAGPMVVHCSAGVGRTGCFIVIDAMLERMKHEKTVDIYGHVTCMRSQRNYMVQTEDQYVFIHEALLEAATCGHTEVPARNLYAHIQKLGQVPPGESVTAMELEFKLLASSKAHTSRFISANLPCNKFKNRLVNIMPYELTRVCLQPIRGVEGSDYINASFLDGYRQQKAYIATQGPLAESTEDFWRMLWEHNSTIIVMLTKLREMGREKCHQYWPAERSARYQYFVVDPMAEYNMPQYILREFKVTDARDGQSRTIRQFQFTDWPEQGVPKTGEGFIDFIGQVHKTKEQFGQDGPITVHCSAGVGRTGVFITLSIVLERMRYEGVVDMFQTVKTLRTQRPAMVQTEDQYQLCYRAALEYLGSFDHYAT

Regarding `COc1c(C=O)c2c(c3c1CC(C)(C)C3)C(=O)OC(O)C2` (configuration not stated), the IC50 in assay [1], in [2], in assay [3], in assay [4], in [5] and in assay [6] was over 100 µM throughout. The compound further displayed an IC50 in assay [15] of over 100 µM. Moreover, the inhibition entry in [7], in [8], in assay [9], in assay [10], in assay [11] and in assay [12] was “inactive” in each case. Also, the inhibition result in assay [13] and in [17] was “inactive” throughout. Moreover, the inhibition result in [14] was “Active”. For the same compound, the inhibition entry in [16] was “Tde”.
In the case of `CC1(C)Cc2c(O)c(C=O)c3c(c2C1)C(=O)OC(O)C3` (configuration not stated) [ILLUDALIC ACID], in [18], the T1/2 came out at 30 s. Besides, the concentration for half-maximal inhibition (IC50) in assay [1] is over 100 µM; in [2], over 100 µM; in assay [3], over 100 µM; in [4] it was over 100 µM; in [5], 16 µM; in assay [6] it was 10 µM. This compound gave a concentration for half-maximal inhibition (IC50) in assay [15] of 29 µM. The inhibition result was “Dose-dependent effect” in assay [19], “Tde” in assay [20], “Tde” in assay [21] and “Tde” in assay [22]. In addition, the inhibition entry in assay [7], in [8], in assay [9], in assay [10] and in assay [17] was “inactive” in each case. In addition, the inhibition entry in assay [11], in [12], in assay [13] and in assay [14] was “Active” each time.
As to `COc1ccc2c(c1C=O)CC(O)OC2=O` (configuration not stated), the inhibition result in [7], in [8], in [9], in assay [10], in assay [11] and in [12] was “inactive” throughout. The inhibition entry in [13], in assay [14] and in assay [17] was “inactive” each time.
